{
  "source": "patent US20220370566A1",
  "about": "“METHOD AND COMPOSITIONS FOR TREATING DECREASED COGNITIVE ABILITY” (Saint Louis University, priority 2018, published 2022)",
  "key": {"[1]": {"experiment": "Metabolic effect of adropin^34-76 administration in mice", "format": "in vivo, mouse", "settings": "delivered as two 45 nmol/kg injections", "excerpt": "(§1) Using mice, the Inventors have shown that administration of adropin^34-76, in doses as low as 90 nmol/kg/day, delivered as two 45 nmol/kg injections, can be effective in producing changes in metabolism. Dose as high as 900 nmol/kg/d are well tolerated in mice. While the doses required for a desired clinical effect in humans is expected to vary between patients, the 90 nmol/kg dose administered by subcutaneous, intramuscular, or intravenous injection, either once or twice a day, may represent a preferred treatment protocol. It is anticipated that the treatments would be administered daily, although long-acting formulations involving weekly injections are envisaged. The optimum dose and frequency for a particular subject may be determined by the patient's treating physician, based on the patient's cognitive response. It is anticipated that adropin therapy may or may not improve a subject's cognitive function relative to current baseline, however adropin therapy may result in significant delays in the advancement of the disease. Improvement may manifest as a significant delay or a reduced rate of subsequent cognitive decline."}, "[2]": {"tested_on": "male C57BL/6J (B6) mice, aged 18 months", "experiment": "Aversive T-maze acquisition, aged mice treated with adropin^34-76", "format": "in vivo, mouse", "settings": "90 nmol/kg/day ip", "procedure": "(§2) Memory retention and acquisition were assessed using an aversive T-maze and novel objective recognition, as previously described (Farr et al., (2016) J Alzheimers Dis.; 54(4):1339-1348). Briefly, the T-maze consists of a black plastic alley with a start box at one end and two goal boxes at the other. An electrifiable floor of stainless steel rods run throughout the maze to deliver a foot-shock using a scrambled grid floor shocker (Model E13-08, Coulbourn Instruments, Whitehall, Pa.). Mice are not permitted to explore the maze prior to training. A block of training trials begins when mice are placed in the start box. The guillotine door is raised and a cue buzzer sounded simultaneously (doorbell type, at 55 dB); 5s later a mild aversive foot-shock is applied with an intensity of 0.35 mA. The arm of the maze entered on the first trial is designated “incorrect” and the mild foot-shock continued until the mouse enters the other goal box, which in all subsequent trials is designated “correct” for each mouse. Mice are trained until they made one active avoidance, with an inter-trial interval of 30-35s. The number of trials to make one active avoidance is the measure of acquisition. Retention is tested 7d later, with training continued until the criterion of making five active avoidances in six consecutive trials is achieved. The number of trials needed to reach this criterion is the measure of retention (Butler et al., (2012) The Journal of clinical endocrinology and metabolism; 97(10):3783-3791; Wong et al., (2014) The Journal of biological chemistry; 289(37):25976-25986).\n(§3) To examine the effects of endogenous adropin on a subject's cognitive ability, 34 male C57BL/6J (B6) mice, aged 18 months, were treated with exogenous adropin^34-76. Mice were purchased from The Jackson Laboratory (Bar Harbor, Me.). After acclimation for 1 month, mice were separated into two weight matched groups of 15 mice: Group 1 adropin^34-76 treatment group and Group 2 saline vehicle control.\n(§4) The mice were administered a single intraperitoneal injection (volume 100 μl) each morning (0900h) for 4 weeks. Group 1 was administered adropin^34-76 at a dose of 90 nmol/kg/day. Group 2 was administered saline. The peptide was purchased from Neoscientific Inc. Behavioral testing began after 2 weeks of injections. Injections continued though testing until 4 weeks.\nMice prepared with adropin or placebo in Example 3 were subjected to the Acquisition T-maze test."}, "[3]": {"tested_on": "male C57BL/6J (B6) mice, aged 18 months", "experiment": "Aversive T-maze retention (retest after 7 days), aged mice treated with adropin^34-76", "format": "in vivo, mouse", "settings": "90 nmol/kg/day ip", "procedure": "as §2, §3, §4\n(FIG. 12, Table 3) Mice were retested in the maze after 7 days and Adropin treated mice retained learned memories and complete the maze in lets time."}, "[4]": {"experiment": "Tolerability of adropin^34-76 in mice", "format": "in vivo, mouse", "excerpt": "as §1"}, "[5]": {"tested_on": "Hippocampal gene expression", "experiment": "Hippocampal gene expression (cytokines, growth factors) after TBI", "format": "in vivo, mouse", "settings": "TBI+Adr vs TBI+veh and Sham", "procedure": "FIG. 18 illustrates Hippocampal gene expression. There are increases in the expression of cytokines (significant for IL16, CCI2, IL17) in the hippocampus of TBI-veh mice versus uninjured (sham) controls TBI also appears to result in changes in expression of growth factors (BDNF, VEGF). In most cases, these changes were attenuated by adropin treatment.\nGene expression was assessed using qRT-PCR as previously described. Hippocampal and cortical tissue samples were dissected from fresh brains and snap frozen brains on dry-ice cold isopentane. Total RNA was extracted using Trizol (Invitrogen, Life Technologies) and treated with a DNAfree kit (Ambion, Life Technologies). […] Quantitative PCR was performed in 96-well plates using Taqman gene expression and QuantStudio 7 Detection Systems (Applied Biosystems, Life Technologies); 36B4 was used as the reference gene.\n(§5) TBI PROCEDURE: Mice were exposed to mild closed-head concussive TBI. […] Adequate anesthesia was determined by the lack of both the corneal reflex and toe pinch reflex. […] Following Isoflurane anesthesia and the weight drop procedure, mouse respiration, heart rate and righting reflex was monitored to ensure recovery. The righting reflex time was recorded for each mouse. […] When the mouse moves from a supine to a prone position, i.e., rights itself, the time will be recorded. […]"}, "[6]": {"tested_on": "male C57BL/6J (B6) mice, aged 18 months", "experiment": "Novel Object Recognition test, aged mice treated with adropin^34-76", "format": "in vivo, mouse", "procedure": "For the novel object recognition task, mice are habituated to an empty apparatus, a 58×66×11-cm white plastic box, for 5 min a day for 3 consecutive days prior to entry of objects. On the first day of training, mice are placed in the testing apparatus with two identical objects (A and B). 24h later the animal is reintroduced to the arena but this time one of the original objects is removed and a new object (C). Total time spent exploring each of the two objects is recorded. Anxiety will be assessed using open field and elevated plus maze tests. The experimental apparatus consists of a central platform, two open arms and two equal-sized closed arms opposite to each other. The test consisted of placing a mouse in the central platform facing an enclosed arm and allowing it to freely explore the maze for 5 min. The number of entries into the open and closed arms and the time spent in open arms was measure by an observer blind to treatment\nas §3, §4\nA non-amnesic subject will spend more time exploring the novel object than the familiar one. When adropin treated and vehicle treated mice were subjected to the Novel Object Recognition test, adropin treated mice spent more time exploring the novel object (FIG. 11, Table 1)"}, "plasma cytokine levels": {"tested_on": "plasma cytokine levels", "experiment": "Plasma cytokine levels after TBI", "format": "in vivo, mouse", "settings": "TBI followed by adropin vs TBI followed by saline", "procedure": "FIG. 17 illustrates plasma cytokine levels of mice that were: uninjured, subjected to TBI, and subjected to TBI followed by adropin injections.\nTBI PROCEDURE: Mice were exposed to mild closed-head concussive TBI. Mice were anesthetized with isoflurane 2-4% and placed under a device consisting of a Plexiglas tube (inner diameter 13 mm) placed vertically over the animal's head. Adequate anesthesia was determined by the lack of both the corneal reflex and toe pinch reflex. Each mouse received 90 sec Isoflurane anesthesia in the induction chamber. The injury was induced by dropping a 25-gm acrylic weight from 80 cm height down the Plexiglas tube, striking the skull. This weight was chosen based upon literature using this type of device (Tweedie et al. (2016) PLoS One. 11(6):e0156493; Zohar et al. (2011) Acta Neurobiol Exp. 71:36-45). […] Following Isoflurane anesthesia and the weight drop procedure, mouse respiration, heart rate and righting reflex was monitored to ensure recovery. The righting reflex time was recorded for each mouse. […] When the mouse moves from a supine to a prone position, i.e., rights itself, the time will be recorded. […] One hour following the weight drop injury four reflexes were checked and recorded: the corneal reflex in both eyes, hindleg extension when held by the tail, startle response from a puff of air, and the ability to walk with a normal gate. […]"}, "[7]": {"tested_on": "subjects with diet-induced obesity", "settings": "Kumar et al. 2008, Gao et al. 2014, 2015; cited from earlier work"}, "[8]": {"tested_on": "Male C57BL/6J B6 mice subjected to TBI", "experiment": "T-maze retention after mild closed-head traumatic brain injury (TBI)", "format": "in vivo, mouse", "procedure": "FIG. 16 illustrates the results of T-maze data from adropin treated and adropin transgenic mice after traumatic brain injury. SHAM are mice handled but not subject to injury. Veh are mice treated with 0.9% saline. […] (A) Mice used were males, aged 10-14 weeks, purchased from the Jackson laboratory. (B) “TG” are adropin transgenic mice. “WT” are wild-type littermates. All mice were males aged 9-12 months.\nMemory retention and acquisition were assessed using an aversive T-maze and novel objective recognition, as previously described (Farr et al., (2016) J Alzheimers Dis.; 54(4):1339-1348). Briefly, the T-maze consists of a black plastic alley with a start box at one end and two goal boxes at the other. An electrifiable floor of stainless steel rods run throughout the maze to deliver a foot-shock using a scrambled grid floor shocker (Model E13-08, Coulbourn Instruments, Whitehall, Pa.). Mice are not permitted to explore the maze prior to training. A block of training trials begins when mice are placed in the start box. The guillotine door is raised and a cue buzzer sounded simultaneously (doorbell type, at 55 dB); 5s later a mild aversive foot-shock is applied with an intensity of 0.35 mA. The arm of the maze entered on the first trial is designated “incorrect” and the mild foot-shock continued until the mouse enters the other goal box, which in all subsequent trials is designated “correct” for each mouse. Mice are trained until they made one active avoidance, with an inter-trial interval of 30-35s. The number of trials to make one active avoidance is the measure of acquisition. […]\nas §5"}, "[9]": {"experiment": "Body weight and survival during 4 weeks of adropin^34-76 injections", "format": "in vivo", "settings": "group 1 (adropin^34-76, 90 nmol/kg/day ip), 15 mice", "procedure": "as §3, §4"}, "[10]": {"settings": "n = 14, SEM in next cell, P <0.0001 vs vehicle"}},
  "note": "Several values for one entry are separate records, joined by “and”; a condition that tells them apart may be missing. Equal entries are not always repeated.",
  "data": [
    {"substance": "adropin^34-76 (CHSRSADVDSLSESSPNSSPGPCPEKAPPPQKPSHEGSYLLQP; Adropin; UniProt Q6UWT2 34-76, looked up, fragment)", "values": [
      {"measurement": "dose effective in producing changes in metabolism", "setting": "[1]", "result": "≥ 90", "unit": "nmol/kg/day"},
      {"measurement": "T-maze acquisition, result in words vs placebo treated mice", "setting": "[2]", "result": "performed better"},
      {"measurement": "T-maze acquisition, difference between means (Adropin vs. Vehicle)", "setting": "[2]; vehicle mean 10.80", "result": "−3.443"},
      {"measurement": "T-maze acquisition, mean (Adropin)", "setting": "[2]; [10]", "result": 7.357},
      {"measurement": "T-maze acquisition (individual mice)", "setting": "[2]; one value per mouse, number of trials to make one active avoidance", "result": "7. (5×) and 8. (4×) and 9. (2×) and 6. (3×)"},
      {"measurement": "T-maze Retention, difference between means (Adropin vs. Vehicle)", "setting": "[3]; vehicle mean 9.200", "result": "−2.343"},
      {"measurement": "T-maze Retention, mean (Adropin)", "setting": "[3]; [10]", "result": 6.857},
      {"measurement": "T-maze Retention (individual mice)", "setting": "[3]; one value per mouse, trials to five active avoidances in six consecutive trials, 7 d later", "result": "7. (7×) and 8. and 6. (5×) and 9."},
      {"measurement": "T-maze retention, result in words vs vehicle", "setting": "[3]; retested after 7 days", "result": "superior performance"},
      {"measurement": "dose well tolerated", "setting": "[4]", "result": "≤ 900", "unit": "nmol/kg/day"},
      {"measurement": "TBI-induced changes in hippocampal cytokine and growth factor expression, in words", "setting": "[5]", "result": "these changes are attenuated in most cases"},
      {"measurement": "Novel Object Recognition, result in words vs vehicle treated mice", "setting": "[6]; 90 nmol/kg/day ip", "result": "improved cognitive performance"},
      {"measurement": "Novel Object Recognition, difference between means (Adropin vs. Vehicle)", "setting": "[6]; 90 nmol/kg/day ip, vehicle mean 43.90", "result": 14.99},
      {"measurement": "Novel Object Recognition, mean (Adropin)", "setting": "[6]; n = 15, SEM in next cell, P 0.0183 vs vehicle, unpaired t test, 90 nmol/kg/day ip", "result": 58.88},
      {"measurement": "Novel Object Recognition test, 24 Hour delay % Novel Object (individual mice)", "setting": "[6]; one value per mouse, 90 nmol/kg/day ip for 4 weeks, testing after 2 weeks", "result": "55.56% and 77.50% and 66.67% and 79.10% and 51.06% and 100.00% and 51.61% and 46.43% and 42.86% and 53.06% and 37.50% and 40.74% and 64.58% and 62.50% and 58.82%"},
      {"measurement": "plasma cytokine levels after TBI, in words", "setting": "plasma cytokine levels", "result": "possible reduction in inflammatory responses to TBI"},
      {"measurement": "metabolic changes after intraperitoneal injection, in words", "setting": "[7]", "result": "metabolic changes suggesting improvements in glucose control and reduced risk for type 2 diabetes"},
      {"measurement": "deficits in spatial learning and memory after TBI", "setting": "[8]; 450 nmol/kg iv at 1 h and 450 nmol/kg ip at 24 h post-injury, male B6 mice", "result": "exhibited protection from deficits in spatial learning and memory"},
      {"measurement": "T-maze retention after TBI, compared with uninjured vehicle treated controls", "setting": "[8]; TBI+Adro vs SHAM+Veh", "result": "not significantly different"},
      {"measurement": "T-maze retention after TBI, compared with TBI followed by saline", "setting": "[8]; TBI+Adro vs TBI+Veh, injections 1 h and 24 h post-injury, ** 99% confidence", "result": "significantly improved"},
      {"measurement": "deaths during treatment", "setting": "[9]", "result": "One mouse in group 1 died"}
    ]}
  ]
}
